The text below walks through data of patent EP3753560A1, “COMPOUNDS FOR THE TREATMENT OF NEUROMUSCULAR DISORDERS” (NMD Pharma A/S, priority 2019, dated 2020).

Assay [1] has as its system isolated rat soleus muscles. Nature of the assay: Measurement of force in an in vitro model: recovery of nerve-stimulated contractile force of isolated soleus nerve-muscle preparations after tubocurarine. The note with it: for Point increase (%): percentage of the initial force restored, 50 µM test compound, after 40 mins of compound exposure, in continued presence of 115 nM tubocurarine (90 mins pre-incubation), 30°C. From the text:
• The terms "C1-3 alkyl" and "C1-5 alkyl" refers to a branched or unbranched alkyl group having from […] carbon atoms respectively, including but not limited to methyl, ethyl, prop-1-yl, prop-2-yl, 2-methyl-prop-1-yl, 2-methyl-prop-2-yl, 2,2-dimethyl-prop-1-yl, but-1-yl, but-2-yl, 3-methyl-but-1-yl, 3-methyl-but-2-yl, pent-1-yl, pent-2-yl and pent-3-yl. • The term "C3-5 cycloalkyl" and "C3-6 cycloalkyl" refers to a group having three to five or three to six carbon atoms respectively including a monocyclic or bicyclic carbocycle, including but not limited to cyclopropyl, cyclobutyl, cyclopentyl and cyclohexyl. • The term "C2-5 alkenyl" refers to a branched or unbranched alkenyl group having from two to five carbon atoms, two of which are connected by a double bond, including but not limited to ethenyl, propenyl, isopropenyl, butenyl, isobutenyl, pentenyl and isopentenyl. • The term "C2-5 alkynyl" refers to a branched or unbranched alkynyl group having from […] carbon atoms, two of which are connected by a triple bond, including but not limited to ethynyl, prop-1-ynyl, prop-2-ynyl, but-1-ynyl, but-2-ynyl, but-3-ynyl, buta-1,3-diynyl, pent-1-ynyl, pent-2-ynyl, pent-3-ynyl, pent-4-ynyl, penta-2,4-diynyl and penta-1,3-diynyl. • The term "5 membered aromatic heterocycle" refers to an aromatic group having five carbon atoms wherein between 1 and 3 carbon atoms in the ring have been replaced with a heteroatom selected from the group comprising nitrogen, sulphur and oxygen. Binding to the heterocycle may be at the position of the heteroatom or via a carbon atom of the heterocycle. […] The term "plasma half-life" is the time that it takes the compound to lose one-half of its pharmacologic activity in the blood plasma. • The term "treatment" refers to the combating of a disease or disorder. "Treatment" or "treating," as used herein, includes any desirable effect on the symptoms or pathology of a disease or condition as described herein, and may include even minimal changes or improvements in one or more measurable markers of the disease or condition being treated. […] In some embodiments, the term "treatment" encompasses amelioration and prevention. • The term "amelioration" refers to moderation in the severity of the symptoms of a disease or condition. Improvement in a patient's condition, or the activity of making an effort to correct, or at least make more acceptable, conditions that are difficult to endure related to patient's conditions is considered "ameliorative" treatment. • The term "prevent" or "preventing" refers to precluding, averting, obviating, forestalling, stopping, or hindering something from happening, especially by advance action. • The term "reversal" or "reversing" refers to the ability of a compound to restore nerve-stimulated force in skeletal muscle exposed either ex vivo or in vivo to a non-depolarizing neuromuscular blocking agent or another pharmaceutical that is able to depress neuromuscular transmission • The term "non-depolarizing blockers" refers to pharmaceutical agents that antagonize the activation of acetylcholine receptors at the post-synaptic muscle fibre membrane by blocking the acetylcholine binding site on the receptor.
The current disclosure relates to compounds that inhibit CIC-1 ion channels and increase muscle excitability and thereby improve muscle function in clinical conditions where muscle activation is failing. Such conditions result in loss of contractile function of skeletal muscle, weakness and excessive fatigue. In this series of experiments the compounds were tested for their ability to restore contractile function of isolated rat muscle when the neuromuscular transmission had been compromised akin to neuromuscular disorders.
Experimentally, soleus muscles from 4-5 wk old rats were isolated with the motor nerve remaining attached. […]

The target of a further assay is T1, human CIC-1 channels (Homo sapiens, UniProt P35523).
T1 construct: host or cells: CHO (Chinese hamster ovary) cells, constitutive expression
Kind of assay: Automated whole cell patch-clamp (Qpatch 16) on CHO cells expressing human CIC-1. The note with it: difference in half activation voltage between cell patches treated intracellularly with compound and control (vehicle) patches; positive shift reflects CIC-1 inhibition. It counts as cell-based. On the procedure:
Experiments were performed using an automated patch clamp system that allowed high throughput testing of whole cell patches together with both intracellular and extracellular addition of compound.
Automated whole cell patch clamp experiments were performed with the Qpatch 16 system (Sophion Bioscience, Ballerup, Denmark) at room temperature. Data acquisition and analysis were performed in the Qassay software (ver. 5.6, Odense).
To evoke CIC-1 currents in whole cell patches, the membrane potential was initially stepped from a holding potential of -30 mV to +60 mV for 100 ms and then to various test voltages (sweeps) ranging from +120 mV to -140 mV in steps of 20 mV for 300 ms. To obtain tail currents, the membrane potential was stepped to -100 mV after each test voltage for 300 ms and then relaxed to -30 mV for 2 sec between sweeps (Figure 2). I/V relationships for whole cell instant and steady state current amplitudes were obtained by plotting average current densities at the beginning and at the end of the 300 ms step against the membrane potential (Figure 3).
In order to determine the relative overall open probability (P0), the instantaneous tail currents were normalized to the maximal tail current obtained following the most positive voltage step and plotted against the test voltage. […]
To evaluate the compound effect on CIC-1, when applied directly to the intracellular side of the cell membrane, the half activation voltage, V1/2, was determined from whole cell patches with compound added to the intracellular solution and then compared to V1/2 determined from control cell patches with only vehicle added to the intracellular solution. Additionally, the effect of extracellular added compound was evaluated by determine V1/2 and steady state current amplitudes before and after exchanging the extracellular solution to contain compound.
The difference in half activation voltage of CIC-1 channels, ΔV1/2, was determined as the difference between the cell patches treated intracellularly with compound and control cells patches and is reported in Table 4 below. […]

T1 sequence (P35523 whole entry): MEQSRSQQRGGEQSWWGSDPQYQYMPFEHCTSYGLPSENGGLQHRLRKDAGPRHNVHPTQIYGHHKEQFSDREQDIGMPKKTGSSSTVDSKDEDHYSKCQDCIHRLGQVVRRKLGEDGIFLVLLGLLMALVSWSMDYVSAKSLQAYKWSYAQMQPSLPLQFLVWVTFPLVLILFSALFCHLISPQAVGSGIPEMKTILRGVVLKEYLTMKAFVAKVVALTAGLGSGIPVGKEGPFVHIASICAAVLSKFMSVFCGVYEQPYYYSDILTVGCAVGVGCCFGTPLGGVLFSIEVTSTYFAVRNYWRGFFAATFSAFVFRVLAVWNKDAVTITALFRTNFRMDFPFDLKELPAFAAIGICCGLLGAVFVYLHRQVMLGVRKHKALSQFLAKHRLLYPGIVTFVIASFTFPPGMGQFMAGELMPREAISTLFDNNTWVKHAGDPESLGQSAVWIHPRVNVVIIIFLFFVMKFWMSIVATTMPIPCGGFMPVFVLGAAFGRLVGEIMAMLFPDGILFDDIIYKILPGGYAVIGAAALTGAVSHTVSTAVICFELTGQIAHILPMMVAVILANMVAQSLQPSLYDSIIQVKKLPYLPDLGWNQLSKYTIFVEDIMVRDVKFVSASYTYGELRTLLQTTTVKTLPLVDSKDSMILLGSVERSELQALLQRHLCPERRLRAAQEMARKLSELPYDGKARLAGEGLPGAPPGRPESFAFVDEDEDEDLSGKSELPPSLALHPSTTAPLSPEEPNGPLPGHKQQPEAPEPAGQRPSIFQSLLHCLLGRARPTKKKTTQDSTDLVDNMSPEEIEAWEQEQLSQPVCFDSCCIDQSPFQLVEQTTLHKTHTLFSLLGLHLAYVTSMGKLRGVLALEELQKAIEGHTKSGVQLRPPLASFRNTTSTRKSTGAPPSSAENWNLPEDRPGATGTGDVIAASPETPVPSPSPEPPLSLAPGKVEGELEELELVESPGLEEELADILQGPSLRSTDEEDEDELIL

As for `O=C(O)[C@@H]1CCc2cc(Br)cc(-c3ccon3)c2O1` (single isomer, unassigned) [Compound A-13], in assay [1], the “Point increase (%)” value is recorded as 24%.

On to `O=C(O)Cn1cc(-c2ccon2)c2cc(Cl)ccc21` [Compound A-4, 2-[5-chloro-3-(1,2-oxazol-3-yl)-1H-indol-1-yl]acetic acid], for which the “Point increase (%)” value in assay [1] came to 12%.

With `O=C(O)Cn1cc(-c2ccon2)c2cc(Br)ccc21` [Compound A-12, 2-[5-bromo-3-(1,2-oxazol-3-yl)-1H-indol-1-yl]acetic acid], the “Point increase (%)” value in assay [1] is on record as 13%.

As to `O=C(O)[C@@H]1CCCN1c1ccc(Br)cc1F` [Compound A-14, (2S)-1-(4-bromo-2-fluorophenyl)pyrrolidine-2-carboxylic acid], the “Point increase (%)” value in assay [1] is given as 26%. In addition, the “ΔV1/2 (mV)” value on human CIC-1 channels stood at 8.4 mV.

Consider `O=C(O)C1CCc2cc(Br)cc(-c3ccon3)c2O1` (stereo not drawn) [Compound A-15, 6-bromo-8-(1,2-oxazol-3-yl)-3,4-dihydro-2H-1-benzopyran-2-carboxylic acid], for which, in assay [1] (Figure 1: 50 µM compound added after 90 min incubation in tubocurarine, 3 muscles), the “average force (AUC) relative to initial force” value is given as “recovered”.

Take `O=C(O)Cn1ccc2cc(Br)ccc21` [Compound A-24, 2-(5-bromo-1H-indol-1-yl)acetic acid]: in assay [1], the “Point increase (%)” value is 10%. For the same compound, the “ΔV1/2 (mV)” value on human CIC-1 channels is on record as 27.9 mV.

As for `CC(C(=O)O)n1ccc2cc(Br)ccc21` (stereo not drawn) [Compound A-25, 2-(5-bromo-1H-indol-1-yl)propanoic acid], on human CIC-1 channels, the “ΔV1/2 (mV)” value was determined as 5.5 mV.
